# “And” between values parts separate entries of the source, which are not always exact repeats. Equal entries are not always repeated.
# Target: PKBβ (Homo sapiens, UniProt P31751)
# Assay: kinase selectivity screening, PKBβ
# Type: biochemical
# Conditions: not given
# Description: (§1) All predicted inhibitors for testing (except compound 3) were purchased from Vitas-M Laboratory, with purity ≥ 90%. Compound 3 was purchased from Biosynth Carbosynth with purity of 95%. Binding assay experiments against Homo sapiens GSK-3β were performed using a specialist service from the MRC Protein Phosphorylation & Ubiquitylation Unit at the University of Dundee (http://www.kinase-screen.mrc.ac.uk/ (accessed on 1 April 2023)). Initial assays underwent single concentration screening at 50 µM concentrations to determine those compounds showing the best inhibitory potential. Inhibitory activities were calculated based on maximal activities measured in the absence of an inhibitor. […] In the kinase selectivity panel screening for 14 and 19, the compounds were assayed at single concentration (50 μM) against CDK2, CDK5, CDK9, ERK1, ERK2, PKA, PKBβ, PKCα, PKCγ, GSK-3α, and GSK-3β. All binding assay experiments were performed in duplicate.
# Sequence of PKBβ (P31751 whole entry, species assumed): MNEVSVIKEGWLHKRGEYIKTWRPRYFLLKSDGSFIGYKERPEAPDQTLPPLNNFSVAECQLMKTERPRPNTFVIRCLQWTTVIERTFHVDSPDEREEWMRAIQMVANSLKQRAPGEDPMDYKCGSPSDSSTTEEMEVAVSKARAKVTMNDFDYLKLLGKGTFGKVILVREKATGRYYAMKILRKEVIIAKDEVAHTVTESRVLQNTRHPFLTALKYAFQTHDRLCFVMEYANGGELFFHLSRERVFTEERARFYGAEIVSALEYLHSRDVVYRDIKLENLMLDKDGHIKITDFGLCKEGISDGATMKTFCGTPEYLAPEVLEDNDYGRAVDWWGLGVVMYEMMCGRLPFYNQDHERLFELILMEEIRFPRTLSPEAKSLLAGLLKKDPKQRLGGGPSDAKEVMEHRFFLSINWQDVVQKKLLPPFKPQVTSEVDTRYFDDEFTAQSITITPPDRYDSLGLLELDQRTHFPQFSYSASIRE
row,SMILES,IC50 [µM]
1,Cc1cc(C)cc(Nc2c3c4c(cccc4[nH]c2=O)C(=O)c2ccccc2-3)c1 [Compound 14],14.9 ± 1.5
2,CCCCNc1c2c3c(cccc3[nH]c1=O)C(=O)c1ccccc1-2 [Compound 19],24.6 ± 0.2

# Target: PKCγ (Homo sapiens, UniProt P05129)
# Assay: kinase selectivity screening, PKCγ
# Type: biochemical
# Conditions: not given
# Description: as §1
row,SMILES,IC50 [µM]
1,CCCCNc1c2c3c(cccc3[nH]c1=O)C(=O)c1ccccc1-2 [Compound 19],11 ± 1.5

# Target: T1, Homo sapiens GSK-3β (Homo sapiens, UniProt P49841)
# T1 construct: purchased MRC Protein Phosphorylation & Ubiquitylation Unit, University of Dundee (screening service)
# Assay: in vitro GSK-3β binding assay (kinase inhibition, MRC PPU Dundee)
# Type: biochemical
# Conditions: in vitro binding assay, duplicate
# Description: as §1
# T1 sequence (P49841 whole entry): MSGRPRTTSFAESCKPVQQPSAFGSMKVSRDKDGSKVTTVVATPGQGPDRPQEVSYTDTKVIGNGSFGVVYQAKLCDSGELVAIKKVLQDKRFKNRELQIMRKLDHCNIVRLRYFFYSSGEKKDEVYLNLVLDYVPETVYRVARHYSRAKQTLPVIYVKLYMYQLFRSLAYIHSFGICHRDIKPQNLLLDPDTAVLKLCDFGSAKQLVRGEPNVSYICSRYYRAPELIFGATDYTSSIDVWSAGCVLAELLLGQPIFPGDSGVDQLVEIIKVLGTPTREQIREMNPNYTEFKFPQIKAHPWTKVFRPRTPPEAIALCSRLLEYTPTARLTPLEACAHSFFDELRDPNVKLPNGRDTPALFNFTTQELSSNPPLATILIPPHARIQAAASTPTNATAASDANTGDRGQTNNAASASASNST
row,SMILES,IC50
1,"O=C1c2ccccc2-c2c(Nc3ccccc3)c(O)nc3cccc1c23 [Compound 2, 1-(phenylamino)-3H-naphtho[1,2,3-de]quinoline-2,7-dione]",20.6 ± 3.8 µM
2,"COc1ccc([C@@H]2CC(=O)Nc3cccc4c3c2cn4Cc2ccccc2)c(OC)c1 [Compound 4, (R)-1-benzyl-3-(2,4-dimethoxyphenyl)-1,3,4,6-tetrahydro-5H-azepino[4,3,2-cd]indol-5-one]",87.5 ± 9.17 µM
3,O=C1c2ccccc2-c2c(NC3CCCCC3)c(=O)[nH]c3cccc1c23 [Compound 18],25.3 ± 3.5 µM
4,"COc1cccc2c1cc1c3c(cc4c(c32)OCO4)C(=O)N1 [Compound 3, 8-methoxy-[1,3]dioxolo[4′,5′:4,5]benzo[1,2,3-cd]benzo[f]indol-5(6H)-one]",63.7 ± 3.3 µM
5,COc1ccc(Nc2c3c4c(c(Br)ccc4n(C)c2=O)C(=O)c2ccccc2-3)cc1 [Compound 17],14 ± 3.1 µM
6,Cc1ccc(Nc2c3c4c(cccc4[nH]c2=O)C(=O)c2ccccc2-3)cc1 [Compound 13],< 10 µM and 9.4 µM
7,Cn1c(=O)c(NCCO)c2c3c(cccc31)C(=O)c1ccccc1-2 [Compound 21],17 ± 2.7 µM
8,Nc1c2c3c(cccc3[nH]c1=O)C(=O)c1ccccc1-2 [Compound 22],36.7 ± 5.7 µM
9,"Nc1ccc2ncnc3c2c1C(=O)c1ccccc1-3 [Compound 1, 6-amino-7H-benzo[e]perimidin-7-one]",1.63 ± 0.3 µM
10,Cc1cc(C)cc(Nc2c3c4c(cccc4[nH]c2=O)C(=O)c2ccccc2-3)c1 [Compound 14],< 10 µM and 9.1 µM
11,CCCCNc1c2c3c(cccc3[nH]c1=O)C(=O)c1ccccc1-2 [Compound 19],< 10 µM and 4.9 µM
12,COc1ccccc1Nc1c2c3c(cccc3n(C)c1=O)C(=O)c1ccccc1-2 [Compound 16],27.1 ± 1.1 µM
13,COc1ccc(Nc2c3c4c(cccc4[nH]c2=O)C(=O)c2ccccc2-3)cc1 [Compound 15],11.4 ± 0.6 µM
14,COCCCNc1c(O)nc2cccc3c2c1-c1ccccc1C3=O [Compound 20],< 10 µM and 9.1 µM

# Same assay, conditions: single concentration 50 µM
row,SMILES,inhibition at 50 µM [%]
1,"O=C1Nc2cc(Cl)ccc2/C1=C/c1cccc2[nH]ccc12 [Compound 12, (Z)-3-((1H-indol-4-yl)methylene)-6-chloroindolin-2-one]",< 0
2,"COc1cc2c(cc1OC)[C@@H](c1c(O)[nH]c(=O)n(-c3ccc(C)c(C)c3)c1=O)NCC2 [Compound 11, (S)-5-(6,7-dimethoxy-1,2,3,4-tetrahydroisoquinolin-1-yl)-3-(3,4-dimethylphenyl)-6-hydroxypyrimidine-2,4(1H,3H)-dione]",2
3,"COc1ccc(Cn2cnc3c([nH]c4ccccc43)c2=O)cc1OC [Compound 9, 3-(3,4-dimethoxybenzyl)-3,5-dihydro-4H-pyrimido[5,4-b]indol-4-one]",9
4,"Cc1ccc2c(c1)[C@]1(N[C@@H]([C@@H](C)O)[C@H]3C(=O)N(Cc4ccc5c(c4)OCO5)C(=O)[C@H]31)C(=O)N2 [Compound 10, (3S,3′R,3a′S,6a′R)-5′-(benzo[d][1,3]dioxol-5-ylmethyl)-3′-((R)-1-hydroxyethyl)-5-methyl-2′,3′,3a′,6a′-tetrahydro-4′H-spiro[indoline-3,1′-pyrrolo[3,4-c]pyrrole]-2,4′,6′(5′H)-trione]",6
5,"O=C1Nc2ccccc2C(=O)N2c3ccccc3C[C@@H]12 [Compound 5, (S)-12a,13-dihydro-6H-benzo[5,6][1,4]diazepino[1,2-a]indole-6,12(11H)-dione]",20
6,"Cc1coc2cc3oc(=O)c(CC(=O)N[C@H]4CCCc5c4[nH]c4ccccc54)c(C)c3cc12 [Compound 7, (S)-2-(3,5-dimethyl-7-oxo-7H-furo[3,2-g]chromen-6-yl)-N-(2,3,4,9-tetrahydro-1H-carbazol-1-yl)acetamide]",10
7,"O=C1N/C(=C/c2ccccc2)C(=O)N2Cc3ccccc3C[C@@H]12 [Compound 8, (S,E)-3-benzylidene-2,3,11,11a-tetrahydro-4H-pyrazino[1,2-b]isoquinoline-1,4(6H)-dione]",10
8,"CN(C)CCn1cnc2c1c(=O)[nH]c(=O)n2Cc1ccccc1 [Compound 6, 3-benzyl-7-(2-(dimethylamino)ethyl)-3,7-dihydro-1H-purine-2,6-dione]",11

# Same assay, conditions: single-dose profiling 50 μM
row,SMILES,% remaining activity (GSK-3β) [%]
1,Cc1cc(C)cc(Nc2c3c4c(cccc4[nH]c2=O)C(=O)c2ccccc2-3)c1 [Compound 14],< 50
2,CCCCNc1c2c3c(cccc3[nH]c1=O)C(=O)c1ccccc1-2 [Compound 19],< 50

# Target: GSK-3α (Homo sapiens, UniProt P49840)
# Assay: kinase selectivity screening, GSK-3α
# Type: biochemical
# Conditions: not given
# Description: as §1
# Sequence of GSK-3α (P49840 whole entry, species assumed): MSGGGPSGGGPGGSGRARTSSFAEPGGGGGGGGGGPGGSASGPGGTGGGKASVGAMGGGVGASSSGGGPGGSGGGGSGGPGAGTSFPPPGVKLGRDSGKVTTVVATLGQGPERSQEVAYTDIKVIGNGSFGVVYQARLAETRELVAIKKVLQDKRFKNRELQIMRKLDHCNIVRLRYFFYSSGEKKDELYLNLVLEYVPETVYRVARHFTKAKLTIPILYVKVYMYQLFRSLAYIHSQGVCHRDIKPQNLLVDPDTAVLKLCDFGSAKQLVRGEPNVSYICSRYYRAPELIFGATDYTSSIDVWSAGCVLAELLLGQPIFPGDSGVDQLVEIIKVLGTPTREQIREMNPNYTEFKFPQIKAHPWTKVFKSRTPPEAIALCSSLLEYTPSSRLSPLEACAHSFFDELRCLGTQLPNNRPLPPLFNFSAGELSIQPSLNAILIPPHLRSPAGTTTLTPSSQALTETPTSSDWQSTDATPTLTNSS
row,SMILES,IC50 [nM]
1,Cc1cc(C)cc(Nc2c3c4c(cccc4[nH]c2=O)C(=O)c2ccccc2-3)c1 [Compound 14],2300 ± 400
2,CCCCNc1c2c3c(cccc3[nH]c1=O)C(=O)c1ccccc1-2 [Compound 19],1700 ± 100

# Same assay, conditions: single-dose profiling 50 μM
row,SMILES,% remaining activity (GSK-3α) [%]
1,Cc1cc(C)cc(Nc2c3c4c(cccc4[nH]c2=O)C(=O)c2ccccc2-3)c1 [Compound 14],< 50
2,CCCCNc1c2c3c(cccc3[nH]c1=O)C(=O)c1ccccc1-2 [Compound 19],< 50

# System: GSK-3β
# Assay: not given
# Set-up: method as in ChEMBL database [53]
# Conditions: Table S1, ChEMBL data; ref ChEMBL database [53]; read-out: IC50 (GSK-3β, known actives); cited from earlier work
row,SMILES,IC50 [nM]
1,O=CN1Cc2cccc3c(C4=C(c5cnc6ccccn56)C(=O)NC4=O)cn(c23)CC1N1CCOCC1 (centres unmarked) [CHEMBL4162850],1.3
2,Cc1ccc(-n2cc(CSC3=NC(c4ccccc4)CC(=O)N3C)nn2)cc1C (centres unmarked) [CHEMBL4635819],82
3,C[C@@H]1C[C@H]2CN1CCn1nc3c(cccc3c1O)-c1nc3c(cccc3nc1O)O2 [CHEMBL215803],13
4,Cc1ccccc1-n1cc(-c2ccccn2)nn1 [CHEMBL1938959],490
5,Cc1ccc(-c2c[nH]c(C3COCCN3Cc3c[nH]c4ccccc34)n2)cc1 (centres unmarked) [CHEMBL2297166],120
6,COc1cc(C2=C(c3cn(CCN4CCN(C)CC4)c4ccccc34)C(=O)NC2=O)c2occc2c1 [CHEMBL564450],0.14
7,O=c1[nH]cnc2[nH]c(-c3ccnc(/C=C/c4ccc(CN5CCOCC5)cc4)c3)cc12 [CHEMBL461139],300
8,COc1cc(F)cc(F)c1C1CN(c2nc(-c3ccncn3)cc(=O)n2C)CCN1 (centres unmarked) [CHEMBL4071429],1.7
9,O=C(CCl)c1scc(Br)c1Br [CHEMBL357136],500
10,O=C(/C=C/c1cnc2[nH]cc(-c3ccccc3)c2c1)NCCN1CCOCC1 [CHEMBL3891139],46
11,N#Cc1ccc2[nH]c(O)c(-c3ccc(CN4CCOCC4)cn3)c2c1 [CHEMBL1969664],31
12,COc1ccncc1-c1ccc2[nH]nc(C(=O)NCC3CCN(CCc4ccccc4)CC3)c2c1 [CHEMBL3735603],20
13,COc1cccc(Nc2nccc(C3=C(c4ccccc4)NN4C=CC=CC34)n2)c1 (centres unmarked) [CHEMBL403405],30
14,COc1ccc(Nc2nnc(-c3ccc(C(F)(F)F)cc3)o2)cc1 [CHEMBL1630483],53
15,COc1cccc(-n2ncc3c(N/N=C/c4ccc(OCCN(C)C)cc4)ncnc32)c1 [CHEMBL303321],6.31
16,COc1ccc(-c2cc(-c3ccc(F)cc3)[nH]c(=O)c2O)cc1 [CHEMBL1630451],325
17,Oc1ccc(Nc2ncnc3[nH]cnc23)cc1CN(CCCl)CCCl [CHEMBL1630434],10.8
19,Nc1c(Br)cc(C(=O)C(Br)Br)cc1Br [CHEMBL1801628],500

row,SMILES,IC50 [nM]
1,COc1ccc(-n2cnc3ccc(-c4nnc(SCc5cccc(C(F)(F)F)c5)o4)cc32)cc1 [CHEMBL513570],2.5
2,CCc1ccc(-n2cc(CSc3nnc(Cn4c(C(F)(F)F)nc5ccccc54)o3)nn2)cc1 [CHEMBL4643895],390
3,Fc1cnc2[nH]nc(Nc3cc(C(F)(F)F)cc(-c4ccccc4Cl)n3)c2c1 [CHEMBL3661029],50
5,O=C1Cc2cc(Br)ccc2/C1=c1/[nH]c2ccccc2/c1=C\O [CHEMBL4077172],5
6,OCC/N=c1\nc(-c2ccccc2)n(-c2cccc3ccccc23)s1 [CHEMBL2022413],300
7,COc1ccc2c(c1C(C)N1CCNCC1)O/C(=C\c1n[nH]c3ncccc13)C2=O (centres unmarked) [CHEMBL3735890],6.1
8,COc1ccc(-c2oc3ncnc(N)c3c2-c2cccnc2)cc1 [CHEMBL361567],80
9,O=C1Nc2ccccc2/C1=C1/Nc2cc(Br)ccc2C1=O [CHEMBL1830063],4
10,C=CCOC(=O)c1cc(-c2ccc(/C=C3/NC(=S)NC3=O)o2)ccc1Cl [CHEMBL4568120],218
11,COc1ccc(-c2cc3c(NC(=O)CC4CCCC4)ncnc3o2)cc1 [CHEMBL182891],320
12,O=C(NCCc1cccnc1Cl)c1ccnc2[nH]c(-c3ccoc3)nc12 [CHEMBL2048673],9
13,CCOC(=O)C/N=c1\nc(-c2ccc(OC)cc2)n(-c2ccccc2)s1 [CHEMBL2024372],500
14,COc1ccc(-c2ocnc2C(=O)NCc2ccn3ccnc3c2)cc1Cl [CHEMBL1957231],5.01
15,O=C(NC1CCNCC1)c1n[nH]cc1NC(=O)c1c(Cl)cccc1Cl [CHEMBL445813],200
16,Clc1ccccc1-c1cc(NCOc2cccnc2)n2ncc(Br)c2n1 [CHEMBL398621],35
17,Cc1[nH]c2ccccc2c1C1=C(NCCc2ccc(F)cc2)C(=O)N(C)C1=O [CHEMBL1254896],53
18,O=C1Nc2ccccc2/C1=C/c1ccccn1 [CHEMBL2094331],4.19

# Same assay, conditions: read-out: IC50 (GSK-3β, known actives); cited from earlier work
row,SMILES,IC50 [nM]
1,CN(C)C[C@@H](OC(=O)N1Cc2c(NC(=O)C(C)(C)C)n[nH]c2C1(C)C)c1ccccc1 [CHEMBL2064628],227
2,Cc1nn(-c2ccc(Cl)cc2Cl)c2c1c1c(c3cccn32)C(=O)NC1=O [CHEMBL3110144],240

# Target: ERK2 (Homo sapiens, UniProt P28482)
# Assay: kinase selectivity screening, ERK2
# Type: biochemical
# Conditions: not given
# Description: as §1
# Sequence of ERK2 (P28482 whole entry, species assumed): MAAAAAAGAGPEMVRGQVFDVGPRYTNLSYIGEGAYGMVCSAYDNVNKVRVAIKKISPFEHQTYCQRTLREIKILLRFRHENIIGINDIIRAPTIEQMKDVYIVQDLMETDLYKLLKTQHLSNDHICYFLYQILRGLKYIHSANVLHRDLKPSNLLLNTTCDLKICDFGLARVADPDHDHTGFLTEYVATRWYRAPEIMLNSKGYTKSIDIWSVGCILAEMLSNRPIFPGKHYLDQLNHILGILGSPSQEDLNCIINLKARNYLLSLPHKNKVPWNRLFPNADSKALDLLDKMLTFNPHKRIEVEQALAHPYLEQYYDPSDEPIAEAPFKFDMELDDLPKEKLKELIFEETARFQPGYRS
row,SMILES,IC50 [µM]
1,Cc1cc(C)cc(Nc2c3c4c(cccc4[nH]c2=O)C(=O)c2ccccc2-3)c1 [Compound 14],21.3
